Measurements as given in paper PMC11432330, “Novel Drug-like HsrA Inhibitors Exhibit Potent Narrow-Spectrum Antimicrobial Activities against Helicobacter pylori” (International Journal of Molecular Sciences, 2024).

Test system: H. pylori 26695
Assay: In vivo inhibition of HsrA: RNA-Seq transcriptomic analysis of exposed cells
Assay type: cell-based, Helicobacter pylori
Settings: for log2 Fold Change: exposed to lethal concentrations vs control
Experimental: Bacterial growth from three blood agar plates of H. pylori ATCC 700392 (aka 26695) incubated for 48 h at 37 °C under microaerobic conditions was aseptically resuspended in BHI + FBS and adjusted to 10^7 CFU/mL. BHI broth cultures were incubated microaerobically at 37 °C for 24 h. […] At this time, bacterial growth was stopped by adding 1.5 mL ice-cold RNA stop solution (95% absolute ethanol, 5% acid-buffered phenol) and subsequently incubated on ice. Control samples were exposed to the same amount of DMSO instead of the inhibitor. Helicobacter cells from all samples were harvested by centrifugation (4000 rpm at 4 °C for 10 min), then the pellets were quickly frozen by immersion in liquid nitrogen and stored at −80 °C.
RNA-Seq analysis was performed by GENEWIZ (Azenta Life Sciences, Leipzig, Germany). Frozen cell pellets from two biological replicates of each treatment condition were properly submitted to GENEWIZ in dry ice. RNA-Seq libraries were prepared according to standard protocols via rRNA depletion, RNA fragmentation and random priming, reverse transcription, 5’-phosphorylation and dA-tailing of cDNAs, adaptor ligation, and PCR enrichment. Once the quality of each library was confirmed, they were sequenced on an Illumina NovaSeq 6000 (Illumina, San Diego, CA, USA) with 150-bp paired-ends. Raw sequence reads were filtered to remove possible adapter sequences and nucleotides with poor quality using Trimmomatic v.0.36 [105]. The trimmed reads were subsequently mapped to the H. pylori strain 26695 reference genome NC_000915.1 available on NCBI, by using the Bowtie2 aligner v.2.2.6 [106]. Unique gene hit counts were calculated by using featureCounts from the Subread package v.1.5.2. Only unique reads that fell within the gene regions were counted. Using DESeq2 [108], a comparison of the gene expression between the control and treated groups of samples was performed. The Wald test was used to generate p-values and log2 fold changes. Genes with an adjusted p-value < 0.05 and absolute log2 fold change >1 were considered as differentially expressed genes (DEGs) for each comparison. The RNA-Seq data generated in this study have been deposited in ArrayExpress with the accession number E-MTAB-14255.

NC(=NOC(=O)Nc1ccc(Cl)cc1)c1csc([N+](=O)[O-])c1 [Ligand V, N′-{[(4-chloroanilino)carbonyl]}oxy-5-nitrothiophene-3-carboximidamide]
log2 Fold Change HP0986 (gene HP0986, lethal concentrations of V vs control): 0.434 | log2 Fold Change (gene HP0987): -0.503 | log2 Fold Change HP0989 (gene HP0989, lethal concentrations of V vs control): 0.305 | log2 Fold Change HP0993 (gene HP0993, lethal concentrations of V vs control): 0.415 | log2 Fold Change HP0995 (gene HP0995, lethal concentrations of V vs control): 0.339 | log2 Fold Change HP0997 (gene HP0997, lethal concentrations of V vs control): 0.344 | log2 Fold Change HP1008 (gene HP1008, lethal concentrations of V vs control): 0.406 | log2 Fold Change HP1023 (gene HP1023, lethal concentrations of V vs control): 0.173 | log2 Fold Change HP1030 (gene HP1030, lethal concentrations of V vs control): 0.181 | log2 Fold Change HP1036 (gene HP1036, lethal concentrations of V vs control): 0.464 | log2 Fold Change (gene HP1042): -0.579 | log2 Fold Change HP1057 (gene HP1057, lethal concentrations of V vs control): 0.304 | log2 Fold Change (gene HP1067): -0.595 | log2 Fold Change HP1080 (gene HP1080, lethal concentrations of V vs control): 0.450 | log2 Fold Change HP1083 (gene HP1083, lethal concentrations of V vs control): 0.380 | log2 Fold Change HP1088 (gene HP1088, lethal concentrations of V vs control): 0.367 | log2 Fold Change HP1091 (gene HP1091, lethal concentrations of V vs control): 0.326 | log2 Fold Change HP1094 (gene HP1094, lethal concentrations of V vs control): 0.330 | log2 Fold Change HP1095 (gene HP1095, lethal concentrations of V vs control): 0.451 | log2 Fold Change HP1096 (gene HP1096, lethal concentrations of V vs control): 0.362 | log2 Fold Change HP1098 (gene HP1098, lethal concentrations of V vs control): 0.266 | log2 Fold Change (gene HP1102): 1.324 | log2 Fold Change (gene HP1112): -0.531 | log2 Fold Change HP1113 (gene HP1113, lethal concentrations of V vs control): 0.235 | log2 Fold Change HP1115 (gene HP1115, lethal concentrations of V vs control): 0.309 | log2 Fold Change HP1120 (gene HP1120, lethal concentrations of V vs control): 0.296 | log2 Fold Change HP1122 (gene HP1122, lethal concentrations of V vs control): 0.364 | log2 Fold Change HP1125 (gene HP1125, lethal concentrations of V vs control): 0.243 | log2 Fold Change HP1132 (gene HP1132, lethal concentrations of V vs control): 0.451 | log2 Fold Change HP1139 (gene HP1139, lethal concentrations of V vs control): 0.341 | log2 Fold Change HP1140 (gene HP1140, lethal concentrations of V vs control): 0.260 | log2 Fold Change HP1142 (gene HP1142, lethal concentrations of V vs control): 0.424 | log2 Fold Change HP1154 (gene HP1154, lethal concentrations of V vs control): 0.259 | log2 Fold Change HP1157 (gene HP1157, lethal concentrations of V vs control): 0.263 | log2 Fold Change (gene HP1159): -0.549 | log2 Fold Change HP1164 (gene HP1164, lethal concentrations of V vs control): 0.208 | log2 Fold Change HP1165 (gene HP1165, lethal concentrations of V vs control): 0.470 | log2 Fold Change HP1171 (gene HP1171, lethal concentrations of V vs control): 0.290 | log2 Fold Change (gene HP1184): -0.471 | log2 Fold Change HP1193 (gene HP1193, lethal concentrations of V vs control): 0.413 | log2 Fold Change (gene HP1196): -0.491 | log2 Fold Change HP1218 (gene HP1218, lethal concentrations of V vs control): 0.194 | log2 Fold Change HP1221 (gene HP1221, lethal concentrations of V vs control): 0.426 | log2 Fold Change HP1222 (gene HP1222, lethal concentrations of V vs control): 0.384 | log2 Fold Change HP1226 (gene HP1226, lethal concentrations of V vs control): 0.186 | log2 Fold Change (gene HP1232): -0.511 | log2 Fold Change HP1234 (gene HP1234, lethal concentrations of V vs control): 0.340 | log2 Fold Change (gene HP1243): 1.352 | log2 Fold Change HP1251 (gene HP1251, lethal concentrations of V vs control): 0.458 | log2 Fold Change (gene HP1258): -0.491 | log2 Fold Change HP1261 (gene HP1261, lethal concentrations of V vs control): 0.181 | log2 Fold Change HP1262 (gene HP1262, lethal concentrations of V vs control): 0.367 | log2 Fold Change HP1264 (gene HP1264, lethal concentrations of V vs control): 0.389 | log2 Fold Change HP1267 (gene HP1267, lethal concentrations of V vs control): 0.146 | log2 Fold Change (gene HP1270): -0.476 | log2 Fold Change HP1285 (gene HP1285, lethal concentrations of V vs control): 0.248 | log2 Fold Change HP1322 (gene HP1322, lethal concentrations of V vs control): 0.318 | log2 Fold Change HP1337 (gene HP1337, lethal concentrations of V vs control): 0.239 | log2 Fold Change (gene HP1343): -0.493 | log2 Fold Change (gene HP1346): -0.518 | log2 Fold Change HP1352 (gene HP1352, lethal concentrations of V vs control): 0.160 | log2 Fold Change (gene HP1355): -0.601 | log2 Fold Change (gene HP1357): -0.489 | log2 Fold Change HP1358 (gene HP1358, lethal concentrations of V vs control): 0.185 | log2 Fold Change HP1359 (gene HP1359, lethal concentrations of V vs control): 0.220 | log2 Fold Change HP1361 (gene HP1361, lethal concentrations of V vs control): 0.344 | log2 Fold Change HP1363 (gene HP1363, lethal concentrations of V vs control): 0.291 | log2 Fold Change HP1366 (gene HP1366, lethal concentrations of V vs control): 0.348 | log2 Fold Change HP1371 (gene HP1371, lethal concentrations of V vs control): 0.280 | log2 Fold Change HP1377 (gene HP1377, lethal concentrations of V vs control): 0.474 | log2 Fold Change HP1380 (gene HP1380, lethal concentrations of V vs control): 0.326 | log2 Fold Change (gene HP1381): -0.548 | log2 Fold Change HP1385 (gene HP1385, lethal concentrations of V vs control): 0.232 | log2 Fold Change HP1404 (gene HP1404, lethal concentrations of V vs control): 0.393 | log2 Fold Change (gene HP1411): 1.307 | log2 Fold Change HP1433 (gene HP1433, lethal concentrations of V vs control): 0.238 | log2 Fold Change HP1434 (gene HP1434, lethal concentrations of V vs control): 0.407 | log2 Fold Change HP1435 (gene HP1435, lethal concentrations of V vs control): 0.348 | log2 Fold Change HP1436 (gene HP1436, lethal concentrations of V vs control): 0.297 | log2 Fold Change HP1438 (gene HP1438, lethal concentrations of V vs control): 0.319 | log2 Fold Change (gene HP1442): -0.497
